Assay results as given in patent US20220117958A1, “COMPOSITIONS AND METHODS FOR INHIBITING ACSS2” (THE TRUSTEES OF THE UNIVERSITY OF PENNSYLVANIA, priority 2018, published 2022).
≈ marks a conversion by molar mass, not a printed value. Where “and” joins values, the source holds several entries; their conditions need not be identical. Equal values may be shown once. Read-outs that look alike come from different tables or passages of the source. Marks after values point to notes of the source that are not given here.

Key:
[1] = In vivo PK, IV dose, Terminal - brain (brain availability); set-up: species or system Rat (SD); conditions: for Brain concentration, mean / Brain concentration, individual animal: IV 1 mg/kg; for Brain concentration, individual animal: Rat
Procedure: Table 3 and FIG. 5 depict the brain availability of ADG I-204, ADG I-205, ADG I-206, and ADG I-207 after IV administration of 1 mg/kg dose.

[2] = In vivo PK, oral gavage, plasma; set-up: species or system Rat (SD); conditions: PO 5 mg/kg; for Plasma concentration, mean: Rat (SD), BQL = below quantitation limit (1.00 ng/mL); for Plasma concentration, individual animal: Rat, BQL limit 1.00 ng/mL
Excerpt: (§1) Table 20 provides results of in vitro and in vivo pharmacokinetics performed for each of the represented compounds.
(§2) Tables 4 and 5 depict the summary of rat plasma sample concentrations after administration of ADG I-204. FIG. 6 provides a summary of rat plasma and brain concentrations.

[3] = Microsomal stability assay (half-life), mouse; type: in vitro ADME; conditions: Mouse (CD1) microsomes, read-out: Microsomal stability T1/2
Excerpt: as §1

[4] = Microsomal stability assay (half-life), human; type: in vitro ADME; conditions: Human microsomes, read-out: Microsomal stability T1/2
Excerpt: as §1

[5] = Turbidity-based aqueous solubility; type: physicochemical; conditions: aqueous solution (composition not given), kinetic from dmso stock, read-out: highest soluble concentration
Excerpt: as §1

[6] = Protein binding via Rapid Equilibrium Dialysis - plasma; type: in vitro ADME; conditions: Rat (SD) plasma, 2 μM
Excerpt: as §1

[7] = In vivo PK, IV dose, plasma; set-up: species or system Rat (SD); conditions: for Plasma concentration, mean / Plasma concentration, individual animal: IV 1 mg/kg, listed as ADG I-204, 1 mg/kg
Excerpt: as §1, §2

H3K9ac = experiment: Western blot, differentiated CAD cell lysates, H3K9ac levels; type: cell-based; conditions: differentiated CAD cells, DMSO = 100.00%
Excerpt: as §1

[8] = Microsomal stability assay (half-life), rat; type: in vitro ADME; conditions: Rat (SD) microsomes, read-out: Microsomal stability T1/2
Excerpt: as §1

Brain concentration, mean ([1]; Rat (SD), 4 hr, BQL limit 10.0 ng/g (204, 206), 20.0 ng/g (205, 207)): BQL
Brain concentration, mean ([1]; Rat (SD), 8 hr, BQL limit 10.0 ng/g (204, 206), 20.0 ng/g (205, 207)): BQL
Brain concentration, mean ([1]; Rat (SD), 24 hr, BQL limit 10.0 ng/g (204, 206), 20.0 ng/g (205, 207)): BQL
Brain concentration, individual animal ([1]; 0.0830 hr, third animal received only 70% of the test article, listed as ADG I-204, 1 mg/kg): 637 ng/g and 583 ng/g and 242*** ng/g
Brain concentration, individual animal ([1]; 1.00 hr, listed as ADG I-204, 1 mg/kg): 119 ng/g and 60.3 ng/g and 149 ng/g
Brain concentration, individual animal ([1]; 4.00 hr, BQL limit 10.0 ng/g (204, 206), 20.0 ng/g (205, 207)): BQL
Brain concentration, individual animal ([1]; 8.00 hr, BQL limit 10.0 ng/g (204, 206), 20.0 ng/g (205, 207)): BQL
Brain concentration, individual animal ([1]; 24.0 hr, BQL limit 10.0 ng/g (204, 206), 20.0 ng/g (205, 207)): BQL
concentration at 0.083 h ([1]; SD, rat, brain, iv, 1 mg/kg, Rat (SD), 0.083 hr): 487 ng/g
concentration at 1 h ([1]; SD, rat, brain, iv, 1 mg/kg, Rat (SD), 1 hr, read-out: Brain concentration, mean): 109 ng/g
Plasma concentration, mean ([2]; 0.25 hr): BQL
Plasma concentration, mean ([2]; 0.5 hr): BQL
Plasma concentration, mean ([2]; 1 hr): BQL
Plasma concentration, mean ([2]; 4 hr): BQL
Plasma concentration, mean ([2]; 8 hr): BQL
Plasma concentration, mean ([2]; 24 hr): BQL
Plasma concentration, individual animal ([2]; 0.250 hr): BQL
Plasma concentration, individual animal ([2]; 0.500 hr): BQL
Plasma concentration, individual animal ([2]; 1.00 hr): BQL
Plasma concentration, individual animal ([2]; 4.00 hr): BQL
Plasma concentration, individual animal ([2]; 8.00 hr): BQL
Plasma concentration, individual animal ([2]; 24.0 hr): BQL
half-life at 2 μM [3]: 5.02 h
half-life at 2 μM [4]: 1.16 h
solubility [5]: 2 µM (≈ 0.845 µg/mL)
Protein binding, plasma: % Protein free [6]: 0.1994 % Protein free
Plasma concentration, mean ([7]; Rat (SD), 4 hr, terminal): 4 ng/mL
Plasma concentration, mean ([7]; Rat (SD), 8 hr, terminal): 4 ng/mL
Plasma concentration, mean ([7]; Rat (SD), 24 hr, terminal, BQL limit 1.00 ng/mL (ADG I-205: 2.00 ng/mL)): 2 ng/mL
Plasma concentration, individual animal ([7]; Rat, 0.0830 hr, terminal, third animal received only 70% of the test article): 2340 ng/mL and 1170*** ng/mL
Plasma concentration, individual animal ([7]; Rat, 0.500 hr, not terminal (animals 4, 5 and 6)): 4190** ng/mL and 357 ng/mL and 634 ng/mL
Plasma concentration, individual animal ([7]; Rat, 1.00 hr, terminal): 278 ng/mL and 103 ng/mL and 279 ng/mL
Plasma concentration, individual animal ([7]; Rat, 4.00 hr, terminal, BQL limit 1.00 ng/mL (ADG I-205: 2.00 ng/mL)): 4.35 ng/mL
Plasma concentration, individual animal ([7]; Rat, 8.00 hr, terminal, BQL limit 1.00 ng/mL (ADG I-205: 2.00 ng/mL)): 2.97 ng/mL and 5.93 ng/mL
Plasma concentration, individual animal ([7]; Rat, 24.0 hr, terminal, BQL limit 1.00 ng/mL (ADG I-205: 2.00 ng/mL)): 1.09 ng/mL and BQL
concentration at 0.083 h ([7]; SD, rat, plasma, iv, 1 mg/kg, Rat (SD), 0.083 hr, terminal, read-out: Plasma concentration, mean): 1910 ng/mL
concentration at 0.5 h ([7]; SD, rat, plasma, iv, 1 mg/kg, Rat (SD), 0.500 hr, not a terminal time point (animals 4, 5 and 6)): 1730 ng/mL
concentration at 1 h ([7]; SD, rat, plasma, iv, 1 mg/kg, Rat (SD), 1 hr, terminal, read-out: Plasma concentration, mean): 220 ng/mL
concentration at 4 h ([7]; SD, rat, plasma, iv, 1 mg/kg, Rat (SD), 4 hr, terminal, read-out: Plasma concentration, mean): 4.49 ng/mL
concentration at 8 h ([7]; SD, rat, plasma, iv, 1 mg/kg, Rat (SD), 8 hr, terminal, read-out: Plasma concentration, mean): 4.27 ng/mL
concentration at 24 h ([7]; SD, rat, plasma, iv, 1 mg/kg, Rat (SD), 24 hr, terminal, BQL limit 1.00 ng/mL (ADG I-205: 2.00 ng/mL), read-out: Plasma concentration, mean): 1.52 ng/mL
concentration at 0.083 h ([7]; SD, rat, plasma, iv, 1 mg/kg, Rat, 0.0830 hr, terminal, third animal received only 70% of the test article, read-out: Plasma concentration, individual animal): 2220 ng/mL
concentration at 4 h ([7]; SD, rat, plasma, iv, 1 mg/kg, Rat, 4.00 hr, terminal, BQL limit 1.00 ng/mL (ADG I-205: 2.00 ng/mL), read-out: Plasma concentration, individual animal): 8.63 ng/mL
concentration at 8 h ([7]; SD, rat, plasma, iv, 1 mg/kg, Rat, 8.00 hr, terminal, BQL limit 1.00 ng/mL (ADG I-205: 2.00 ng/mL), read-out: Plasma concentration, individual animal): 3.92 ng/mL
concentration at 24 h ([7]; SD, rat, plasma, iv, 1 mg/kg, Rat, 24.0 hr, terminal, BQL limit 1.00 ng/mL (ADG I-205: 2.00 ng/mL), read-out: Plasma concentration, individual animal): 1.95 ng/mL
half-life at 2 μM [8]: 3.92 h
SMILES: CCCCCNC(=O)Nc1ccc2nc(-c3cccs3)c(-c3cccs3)nc2c1 [ADG-204]
H3K9ac levels normalized to H3 and DMSO control (H3K9ac; 1 uM): 22.30%
H3K9ac levels normalized to H3 and DMSO control (H3K9ac; 5 uM): 13.48%
H3K9ac levels normalized to H3 and DMSO control (H3K9ac; 10 uM): 8.32%
H3K9ac levels normalized to H3 and DMSO control (H3K9ac; 20 uM): 17.03%
H3K9ac levels normalized to H3 and DMSO control (H3K9ac; 50 uM): 9.64%
H3K9ac levels normalized to H3 and DMSO control (H3K9ac; 100 uM): 24.00%
